Results from PubChem BioAssay AID2060503 (Molecular Pharmacology Branch, DTP, NCI, 2025).

Test system: 817829-284-R-J1-PDC complex spheroids, viability
Experiment: Anticancer human tumor 817829-284-R-J1-PDC patient-derived colon adenocarcinoma cell line growth inhibition [GQUAD]
Conditions: for IC50: curve of first compound; for viability, T/C: stronger effect = lower value
In short: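 Multi-cell-type spheroids of tumor cells with HUVEC and mesenchymal stem cells, treated with drug combinations. Concentrations descend in half-log steps from near clinical Cmax, or from 10 microM where Cmax is unknown; viability read-out.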

[1] = second compound 0.0316 µM, first compound 0.0316 µM
[2] = second compound 0.0316 µM, first compound 0.1 µM
[3] = second compound 0.0316 µM, first compound 0.316 µM
[4] = second compound 0.0316 µM, first compound 1 µM
[5] = second compound 0.0316 µM, first compound 3.16 µM
[6] = second compound 0.0316 µM, first compound 10 µM
[7] = second compound 0.1 µM, first compound 0.0316 µM
[8] = second compound 0.1 µM, first compound 0.1 µM
[9] = second compound 0.1 µM, first compound 0.316 µM
[10] = second compound 0.1 µM, first compound 1 µM
[11] = second compound 0.1 µM, first compound 3.16 µM
[12] = second compound 0.1 µM, first compound 10 µM
[13] = second compound 0.316 µM, first compound 0.0316 µM
[14] = second compound 0.316 µM, first compound 0.1 µM
[15] = second compound 0.316 µM, first compound 0.316 µM
[16] = second compound 0.316 µM, first compound 1 µM
[17] = second compound 0.316 µM, first compound 3.16 µM
[18] = second compound 0.316 µM, first compound 10 µM
[19] = second compound 1 µM, first compound 0.0316 µM
[20] = second compound 1 µM, first compound 0.1 µM
[21] = second compound 1 µM, first compound 0.316 µM
[22] = second compound 1 µM, first compound 1 µM
[23] = second compound 1 µM, first compound 3.16 µM
[24] = second compound 1 µM, first compound 10 µM
[25] = second compound 3.16 µM, first compound 0.0316 µM
[26] = second compound 3.16 µM, first compound 0.1 µM
[27] = second compound 3.16 µM, first compound 0.316 µM
[28] = second compound 3.16 µM, first compound 1 µM
[29] = second compound 3.16 µM, first compound 3.16 µM
[30] = second compound 3.16 µM, first compound 10 µM
[31] = second compound 10 µM, first compound 0.0316 µM
[32] = second compound 10 µM, first compound 0.1 µM
[33] = second compound 10 µM, first compound 0.316 µM
[34] = second compound 10 µM, first compound 1 µM
[35] = second compound 10 µM, first compound 3.16 µM
[36] = second compound 10 µM, first compound 10 µM
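Also: spheroids exposed to agents for 7 days before readout.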
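For viability, T/C in this document: percent viability relative to DMSO vehicle control taken as 100%.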

With CC(C)(O)C1CCC(Nc2ccc3ncc(-c4cccc(C(F)(F)F)c4)n3n2)CC1 (centres undefined) + CN(C)c1ccc(Nc2c3ccc(NC(=O)CCN4CCCC4)cc3nc3cc(NC(=O)CCN4CCCC4)ccc23)cc1 as the molecule, how does the IC50 (second compound 0.0316 µM) read?
The IC50 was greater than 10 µM.

And the IC50 (second compound 0.1 µM)?
The IC50 was 3.13 µM.

What about the IC50 (second compound 0.316 µM) of the same molecule?
The IC50 was 2.57 µM.

What about the IC50 (second compound 1 µM) of the same molecule?
Its IC50 is 2.26 µM.

What about the IC50 (second compound 3.16 µM) of the same molecule?
Its IC50 is 2.1 µM.

And the IC50 (second compound 10 µM)?
Its IC50 is 1.17 µM.

What about the viability, T/C [1] of the same molecule?
The viability, T/C was 102%.

What about the viability, T/C [2] of the same molecule?
The viability, T/C was 100%.

And the viability, T/C [3]?
Its viability, T/C is 111%.

What about the viability, T/C [4] of the same molecule?
The viability, T/C was 88.4%.

And the viability, T/C [5]?
The viability, T/C was 35.7%.

And the viability, T/C [6]?
Its viability, T/C is 64.8%.

What about the viability, T/C [7] of the same molecule?
Its viability, T/C is 98%.

And the viability, T/C [8]?
Its viability, T/C is 101%.

And the viability, T/C [9]?
Its viability, T/C is 90.3%.

And the viability, T/C [10]?
Its viability, T/C is 95.9%.

And the viability, T/C [11]?
Its viability, T/C is 39.9%.

What about the viability, T/C [12] of the same molecule?
The viability, T/C was 59.2%.

And the viability, T/C [13]?
The viability, T/C was 97.5%.

And the viability, T/C [14]?
The viability, T/C was 97%.

What about the viability, T/C [15] of the same molecule?
The viability, T/C was 86.8%.

What about the viability, T/C [16] of the same molecule?
Its viability, T/C is 97.1%.

And the viability, T/C [17]?
The viability, T/C was 33.4%.

And the viability, T/C [18]?
The viability, T/C was 47.3%.

What about the viability, T/C [19] of the same molecule?
Its viability, T/C is 92.9%.

What about the viability, T/C [20] of the same molecule?
The viability, T/C was 103%.

And the viability, T/C [21]?
The viability, T/C was 95.8%.

And the viability, T/C [22]?
The viability, T/C was 93.5%.

And the viability, T/C [23]?
The viability, T/C was 28.9%.

What about the viability, T/C [24] of the same molecule?
Its viability, T/C is 35.1%.

And the viability, T/C [25]?
Its viability, T/C is 96.5%.

And the viability, T/C [26]?
The viability, T/C was 97.3%.

What about the viability, T/C [27] of the same molecule?
The viability, T/C was 87.9%.

And the viability, T/C [28]?
The viability, T/C was 83.3%.

What about the viability, T/C [29] of the same molecule?
The viability, T/C was 31.6%.

What about the viability, T/C [30] of the same molecule?
Its viability, T/C is 23.2%.

And the viability, T/C [31]?
The viability, T/C was 96%.

What about the viability, T/C [32] of the same molecule?
The viability, T/C was 102%.

What about the viability, T/C [33] of the same molecule?
The viability, T/C was 87.2%.

What about the viability, T/C [34] of the same molecule?
Its viability, T/C is 58.5%.

What about the viability, T/C [35] of the same molecule?
The viability, T/C was 5.62%.

And the viability, T/C [36]?
The viability, T/C was 2.44%.

Which IC50 (second compound 0.0316 µM) does the source give for CCCS(=O)(=O)Nc1ccc(F)c(C(=O)c2c[nH]c3ncc(-c4ccc(Cl)cc4)cc23)c1F + CN(C)c1ccc(Nc2c3ccc(NC(=O)CCN4CCCC4)cc3nc3cc(NC(=O)CCN4CCCC4)ccc23)cc1 here?
The IC50 was 5.75 µM.

What about the IC50 (second compound 0.1 µM) of the same molecule?
The IC50 was 5.66 µM.

What about the IC50 (second compound 0.316 µM) of the same molecule?
The IC50 was 5.88 µM.

And the IC50 (second compound 1 µM)?
Its IC50 is 5.68 µM.

And the IC50 (second compound 3.16 µM)?
Its IC50 is 5.32 µM.

What about the IC50 (second compound 10 µM) of the same molecule?
The IC50 was 1.47 µM.

And the viability, T/C [1]?
The viability, T/C was 113%.

What about the viability, T/C [2] of the same molecule?
Its viability, T/C is 112%.

What about the viability, T/C [3] of the same molecule?
The viability, T/C was 107%.

And the viability, T/C [4]?
The viability, T/C was 98.5%.

What about the viability, T/C [5] of the same molecule?
Its viability, T/C is 80.8%.

What about the viability, T/C [6] of the same molecule?
Its viability, T/C is 22.4%.

And the viability, T/C [7]?
The viability, T/C was 98.9%.

And the viability, T/C [8]?
The viability, T/C was 116%.

What about the viability, T/C [9] of the same molecule?
The viability, T/C was 100%.

And the viability, T/C [10]?
Its viability, T/C is 102%.

And the viability, T/C [11]?
Its viability, T/C is 79.1%.

What about the viability, T/C [12] of the same molecule?
Its viability, T/C is 21.5%.

And the viability, T/C [13]?
Its viability, T/C is 107%.

And the viability, T/C [14]?
The viability, T/C was 115%.

And the viability, T/C [15]?
Its viability, T/C is 97.7%.

And the viability, T/C [16]?
Its viability, T/C is 111%.

And the viability, T/C [17]?
The viability, T/C was 84%.

What about the viability, T/C [18] of the same molecule?
Its viability, T/C is 20.9%.

And the viability, T/C [19]?
Its viability, T/C is 109%.

What about the viability, T/C [20] of the same molecule?
The viability, T/C was 110%.

What about the viability, T/C [21] of the same molecule?
The viability, T/C was 104%.

And the viability, T/C [22]?
The viability, T/C was 98%.

And the viability, T/C [23]?
Its viability, T/C is 79.8%.

What about the viability, T/C [24] of the same molecule?
Its viability, T/C is 22.2%.

What about the viability, T/C [25] of the same molecule?
Its viability, T/C is 106%.

And the viability, T/C [26]?
The viability, T/C was 112%.

And the viability, T/C [27]?
The viability, T/C was 95.6%.

What about the viability, T/C [28] of the same molecule?
Its viability, T/C is 96.1%.

And the viability, T/C [29]?
Its viability, T/C is 76.3%.

What about the viability, T/C [30] of the same molecule?
The viability, T/C was 19.1%.

What about the viability, T/C [31] of the same molecule?
The viability, T/C was 94.4%.

And the viability, T/C [32]?
Its viability, T/C is 87.3%.

What about the viability, T/C [33] of the same molecule?
Its viability, T/C is 63.2%.

What about the viability, T/C [34] of the same molecule?
The viability, T/C was 66.6%.

And the viability, T/C [35]?
Its viability, T/C is 32.8%.

What about the viability, T/C [36] of the same molecule?
Its viability, T/C is 7.36%.
